Several values for one entry are separate records, joined by “and”; a condition that tells them apart may be missing. Identical values can stand only once.
Legend:
[1] = test system: NQO1 activation in BEAS-2B cells; test: BEAS-2B cellular MTT assay of NQO1 activation, 0% HSA; assay type: cell-based; settings: Serum Free W, read-out: BEAS EC50 (nM) Serum Free W
Description: (§1) The growth rate of the BEAS-2B cells changed based on the lot of BEGM SingleQuots in the BEGM media. The cell growth rate was determined for each lot of SingleQuots. Ideally, cells were thawed into media with the new lot of SingleQuots and grown for two passages before testing; however, growing an active culture in the new lot of media for two to three passages before testing was also acceptable. Until the cell growth rate was determined, cells were seeded at different densities (cells/cm^2) in multiple tissue culture flasks in order to avoid the cells becoming more than 70% confluent. Cells should not go above 70% confluent as the cells differentiate when they become confluent. After the cells were grown in the new lot of media as described above, the number of cells per well needed to seed in the collagen plates was determined by seeding different numbers of cells per well and incubating for 48 hours. Cell confluency was checked after 48 hours and a cell number that results in just below to just above confluency was chosen for future plate seeding. Cell confluency in the assay plate was 95-100% confluent after 48 hours.
(§2) Cell media consists of BEBM basal media with the BEGM SingleQuots added. SingleQuots vials were thawed in the tissue culture hood, and GA-1000 (Gentamicin-Amphotericin) was not added.
(§3) If complete media was to be used immediately, BEBM basal media was warmed to room temperature in the hood, but not as high as 37° C. When the media was made for future use, SingleQuots were added to cold BEBM. One at a time, the SingleQuots components (except GA-1000) were added to the BEBM media. After removal of each component from the vial, the vial was rinsed with 0.5-1 mL of BEBM (depending on the volume the vial could hold) and added to the bottle of BEBM. Once all components were added, the label that comes with the SingleQuots kit was put on the bottle of media and the date was recorded. The bottle of media was mixed by gentle shaking. The media was not filtered. This media was stored at 4° C., with any leftover media disposed of one month after the date the SingleQuots were added.
(§4) BEAS-2B Cell Splitting Protocol:
(§5) First, Trypsin was warmed to 37° C. in the water bath. The media was then warmed to room temperature by letting it sit in the tissue culture hood, but not as high as 37° C. The media was aspirated from flask(s) and the flask(s) were washed with PBS. From 1 to 1.5 mL of warm trypsin were added to each flask and incubated at 37° C. until cells came off the flask on their own (~8-10 minutes), with no vigorous tapping on the flask to detach the cells.
(§6) Media was added to each flask to a total volume of 8-10 mL per flask and transferred to 15 mL conical tube(s). The cells were spun down at 120 g for 5 minutes, level 5 brake. The cells can be spun down between 100 and 150 g. Next the media was aspirated and the cell pellet was resuspended in fresh media by pipetting up and down and flicking the tube side to side. Any clumps of cells that remained were allowed to settle to the bottom of the tube before the top suspension was transferred into another tube, leaving about 1 mL of media in the original tube. The 1 mL of media and cell clumps were mixed with a single channel p1000 pipette, and any remaining clumps were removed before adding the cells in suspension to the other tube. The suspension was mixed with a pipette, an aliquot was removed, and the cells were counted. The amount of cells/cm^2 desired was calculated and the required volume of cells was added to tissue culture flasks. For example, use of SingleQuots with ~6000 cells/cm^2 was appropriate for a three day incubation and ~3000 cells/cm^2 for a five day incubation. Optimal cell density differed depending on lot of SingleQuots. The flasks were incubated at 37° C. in 5% CO2.
(§7) Day One: Seeding BEAS-2B Cells in Collagen Plates:
(§8) Plate(s) were either seeded with 0.3% or 0% HSA. While the protocol was similar for both conditions any differences are noted herein below. […]

[2] = test system: NQO1 activation in BEAS-2B cells; test: BEAS-2B cellular MTT assay of NQO1 activation, 0.3% HSA; assay type: cell-based
Description: as §1, §2, §3, §4, §5, §6, §7, §8

[3] = target: HIS-Keap1 full length / Biotin-Nrf2 (16-mer) (Homo sapiens, UniProt Q14145); test: biochemical
Chain of HIS-Keap1 full length / Biotin-Nrf2 (16-mer) (Q14145 whole entry): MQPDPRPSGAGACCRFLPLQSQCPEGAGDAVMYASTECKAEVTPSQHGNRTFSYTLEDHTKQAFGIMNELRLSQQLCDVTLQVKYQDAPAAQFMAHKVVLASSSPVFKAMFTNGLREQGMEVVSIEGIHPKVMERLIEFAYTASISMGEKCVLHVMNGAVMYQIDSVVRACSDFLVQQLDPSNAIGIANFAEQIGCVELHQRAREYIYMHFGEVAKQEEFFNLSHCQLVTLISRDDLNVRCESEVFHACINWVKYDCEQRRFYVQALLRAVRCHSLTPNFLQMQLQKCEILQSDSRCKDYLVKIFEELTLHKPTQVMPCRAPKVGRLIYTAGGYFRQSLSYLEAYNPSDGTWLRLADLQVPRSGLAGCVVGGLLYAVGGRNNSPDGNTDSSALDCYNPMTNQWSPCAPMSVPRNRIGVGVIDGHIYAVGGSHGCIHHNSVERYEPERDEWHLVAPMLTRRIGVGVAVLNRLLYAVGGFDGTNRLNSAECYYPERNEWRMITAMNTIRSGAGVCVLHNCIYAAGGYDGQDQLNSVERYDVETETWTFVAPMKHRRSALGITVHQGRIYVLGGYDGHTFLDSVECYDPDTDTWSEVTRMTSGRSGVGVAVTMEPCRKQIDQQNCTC

[4] = Homo sapiens, BEAS+ W, read-out: BEAS+ W EC50
[5] = BEAS+ W, read-out: BEAS+ W EC50
[6] = Homo sapiens, BEAS+, read-out: BEAS+ EC50

O=C(O)C[C@H]1c2cnc(nc2)OCCCCCc2c(F)c(F)c(c(F)c2F)C(=O)N2CCc3ccc1cc3C2 [Compound 45]
EC50 ([1]; Homo sapiens): > 1000 nM | EC50 [2, 4]: > 10000 nM | IC50 [3]: 229 nM and 244 nM

C[C@@H](C(=O)O)[C@@H]1c2ccc(nc2)OCC/C=C/Cc2ccc(cc2)C(=O)N2CCc3ccc1cc3C2 [Compound 46]
EC50 ([1]; Homo sapiens): 0.7 nM | EC50 [1]: 0.5 nM | EC50 [2, 5]: 2 nM | EC50 [2, 4]: 3.3 nM | IC50 [3]: 0.4 nM and 0.3 nM

C[C@H](C(=O)O)[C@@H]1c2ccc(nc2)OCC/C=C/Cc2ccc(cc2)C(=O)N2CCc3ccc1cc3C2 [Compound 47]
EC50 ([1]; Homo sapiens): 26.2 nM | EC50 [1]: 26 nM and 28.7 nM | EC50 [2, 5]: 94.2 nM and 96.9 nM | EC50 [2, 4]: 140 nM | IC50 [3]: 26.4 nM

Cc1c2ccc3c1nnn3CCCCCCc1ccc(c3cccnc13)C(=O)N1CCc3ccc(cc3C1)[C@@H]2CC(=O)O [Compound 48]
EC50 ([1]; Homo sapiens): 12 nM | EC50 [1]: 9.1 nM | EC50 [2, 5]: 23.9 nM | EC50 [2, 4]: 26.1 nM | IC50 [3]: 0.1 nM and 0.2 nM

Cc1c2cnc3c1nnn3CCCCCc1cccc3c1cc(n3C)C(=O)N1CCc3ccc(cc3C1)C2CC(=O)O (stereo not shown) [Compound 49]
EC50 ([1]; Homo sapiens): 27 nM | EC50 [1]: 28.8 nM | EC50 [2, 5]: 93.2 nM | EC50 [2, 4]: 117 nM | IC50 [3]: 0.6 nM (2×) and 0.4 nM and 0.5 nM

Cc1c2ccc3c1nnn3CCCCCCc1ccc(c3ncccc13)C(=O)N1CCc3ccc(cc3C1)[C@@H]2CC(=O)O [Compound 50]
EC50 ([1]; Homo sapiens): 57.3 nM | EC50 [1]: 47.6 nM | EC50 [2, 5]: 138 nM | EC50 [2, 4]: 89.7 nM | IC50 [3]: 0.2 nM and 0.3 nM

Cc1c2ccc3c1nnn3CCCCCc1ccc(c3ncccc13)C(=O)N1CCc3ccc(cc3C1)[C@@H]2CC(=O)O [Compound 51]
EC50 ([1]; Homo sapiens): 44.9 nM | EC50 [1]: 38.6 nM | EC50 [2, 5]: 125 nM | EC50 [2, 4]: 70.6 nM | IC50 [3]: 0.3 nM and 0.2 nM

C[C@H](C(=O)O)[C@@H]1c2ccc(nc2)OCCCCCc2ccc(cc2)C(=O)N2CCc3ccc1cc3C2 [Compound 55]
EC50 ([1]; Homo sapiens): 125 nM | EC50 [1]: 147 nM | EC50 [2, 5]: 354 nM | EC50 [2, 4]: 482 nM | IC50 [3]: 215 nM and 226 nM and 220 nM and 201 nM

Cc1cc2ncc1[C@@H]([C@H](C)C(=O)O)c1ccc3c(c1)CN(CC3)C(=O)c1ccc(cc1)C/C=C/CCO2 [Compound 58]
EC50 ([1]; Homo sapiens): 9.7 nM | EC50 [1]: 8.8 nM | EC50 [2, 5]: 35.1 nM | EC50 [2, 4]: 26.5 nM | IC50 [3]: 10.9 nM and 8.4 nM

Cc1cc2ncc1[C@H]([C@@H](C)C(=O)O)c1ccc3c(c1)CN(CC3)C(=O)c1ccc(cc1)C/C=C/CCO2 [Compound 59]
EC50 ([1]; Homo sapiens): 1.7 nM | EC50 [1]: 1.6 nM | EC50 [2, 5]: 4.4 nM | EC50 [2, 4]: 5 nM | IC50 [3]: 8.1 nM and 7.3 nM

Cc1cc2ncc1[C@H]([C@H](C)C(=O)O)c1ccc3c(c1)CN(CC3)C(=O)c1ccc(cc1)C/C=C/CCO2 [Compound 62]
EC50 ([1]; Homo sapiens): 0.2 nM | EC50 [1]: 0.1 nM | EC50 [2, 5]: 0.4 nM and 0.3 nM | EC50 [2, 4]: < 0.5 nM | IC50 [3]: 0.4 nM and 0.8 nM

Cc1c2n(C)c3ccc(cc13)CCCCCCn1nnc3c(C)c(cnc31)[C@@H](CC(=O)O)c1ccc3c(c1)CN(CC3)C2=O [Compound 63]
EC50 ([1]; Homo sapiens): 0.7 nM | EC50 [1]: 0.9 nM | EC50 [2, 5]: 3.7 nM and 3.5 nM | EC50 [2, 4]: 2.8 nM | IC50 [3]: 0.5 nM and 0.4 nM

Cc1c2oc3cc(ccc13)OCCCCCn1nnc3c(C)c(ccc31)C(CC(=O)O)c1ccc3c(c1)CN(CC3)C2=O (stereo not shown) [Compound 401]
EC50 [2, 6]: 7110 nM | IC50 [3]: 6.1 nM and 6.5 nM

Cc1c2oc3cc(ccc13)OCCCCCCn1nnc3c(C)c(ccc31)C(CC(=O)O)c1ccc3c(c1)CN(CC3)C2=O (stereo not shown) [Compound 402]
EC50 [2, 6]: > 10000 nM | IC50 [3]: 58.7 nM and 57.7 nM

O=C(O)CC1c2ccc3c(c2)CN(CC3)C(=O)c2cccc(c2)OCCCCCCn2nnc3cc1ccc32 (stereo not shown) [Compound 403]
EC50 [2, 6]: > 10000 nM | IC50 [3]: 146 nM and 192 nM

Reference: patent publication US12692274B2, “Tetrahydroisoquinoline derivatives for the treatment of red blood disorders and inflammatory diseases” (Sanofi, priority 2020, dated 2026)
